How the values were obtained:
monomeric Tau 4R2N [1] = target: T1, monomeric Tau 4R2N (Homo sapiens, UniProt P10636); assay: Seeding of monomeric Tau with R2 or R2-derived peptide seeds, EM; type: biochemical; conditions: 37° C.; for seeding of monomeric Tau / formation of rPHFs (EM): 10 μM sonicated peptide fibrils + 10 μM monomeric Tau
T1 construct: made in house; host or cells: E. coli (pET-28a(+))
Description: The seeding of Tau 4R2N (SEQ ID No: 5) by R2 was performed in presence of 10 μM of sonicated peptide fibrils, added to 10 μM of the monomeric soluble Tau, at 37° C. under stagnant conditions. It was observed that R2 is capable of seeding the aggregation of full length Tau (FIG. 3).
Having determined which of the R2-derived peptides are capable of aggregation and characterized their aggregation kinetics and fibril morphology, it was next investigated whether some of the R2-derived peptides could induce the seeding of Tau and K18, and whether it would lead to the formation of rPHFs fibrils. In order to reach this goal, fibrils of the peptides that were able to aggregate (R2 dC5, dC9, dC10, dC15 K6N and dPHF6*) were sonicated and added to monomeric Tau or K18 at molar ratios of 10 μM: 10 μM (i.e. under the same experimental conditions as those leading to R2-seeding of Tau and K18).
Unless stated otherwise, 100 μM R2 or R2-derived peptide were dissolved in 10 mM phosphate, 50 mM NaF, 0.5 mM DTT and pH-adjusted to 7.4. The solution was then vortexed and the supernatant was incubated in presence of heparin sodium salt at molar ratio 1:4 (heparin:peptide) (Applichem GmbH) at 37° C., either with or without constant orbital agitation (1000 rpm, Peqlab, Thriller).
The obtained seeds were added at a final concentration of 10 μM to 10 μM of monomeric Tau or K18 in 10 mM phosphate, 50 mM NaF, 0.5 mM DTT and incubated 37° C.

tau biosensor cells = assay: Tau biosensor cell assay (FRET flow cytometry, confocal microscopy), seeding capacity; type: cell-based; conditions: for Integrated FRET Density (IFD): FRET flow cytometry, 2 experimental repeats, 3 technical replicates
From the text: Based on Furman and Diamond, 2017. FRET and Flow Cytometry Assays to Measure Proteopathic Seeding Activity in Biological Samples. Caroline Smet-Nocca (ed.), Tau Protein: Methods and Protocols, Methods in Molecular Biology, vol. 1523, DOI 10.1007/978-1-4939-6598-4_23, © Springer Science+Business Media New York 2017).
Methods: FRET flow cytometry Biosensor cell assay (Furman and Diamond, 2017) was used to assess the seeding capacity of fibrillar R2 compared to R2 monomer, and fibrillar rPHF compared to 4R2N monomer
Methods: cells were transduced with transduction buffer, R2 monomer, rPHFs or R2 fibrils following protocol by Furman and Diamond (2017).

monomeric Tau 4R2N [2] = target: T1, monomeric Tau 4R2N; assay: R2-seeded Tau aggregation with commercially available inhibitors, ThS fluorescence and EM; type: biochemical; conditions: Tau 4R2N 5 μM + R2 seeds 5 μM; inhibitor 1, 10, 100 μM; end timepoint ThS
Description: The aggregation kinetic is followed using ThS fluorescence. a. The list and structure of the 5 inhibitors used in this proof of concept assay. b. As an example, the full kinetic of Tau incubated in presence of R2 seed with LMTX at 1 μM (orange), 10 μM (grey) or 100 μM (yellow) or in absence of inhibitor (blue). c. End timepoint ThS value of Tau incubated in presence of R2 with the five selected inhibitors at 1 μM (orange), 10 μM (grey) or 100 μM (yellow) or in absence of inhibitor (blue). The inhibition is dose-dependent, the inhibitors show various inhibition potencies (e.g. low for BSc3094, high for LMTX). […] Corresponding EM micrographs confirm the absence of significant fibrilization in the presence of most inhibitors. The presence of oligomeric species corroborate the hypothesis that Tau is locked in OFF-pathway conformations. The scale bars are 500 [nm].
To do so, R2 seeds were incubated with monomeric Tau protein in presence or absence of a set commercially available know Tau aggregation inhibitors (ATPZ, LMTX, Pyrochatecol violet, BSc3094 and myricetin, FIG. 18 a) at three different conventions (1 μM, 10 μM and 100 μM). The aggregation kinetic was followed using ThS fluorescence. As an example, the full kinetic of Tau incubated in presence of R2 seed, with LMTX at the three different concentration is presented in FIG. 18 b. […]

[3] = system: hippocampal rat primary neurons; assay: Immunocytochemistry (ThS) in transfected rat primary hippocampal neurons; type: cell-based; conditions: 1 μM, 3 days
Description: Next, the findings of the present invention were validated using a cellular model, the hippocampal rat primary neurons. Primary neurons were transfected with full length Tau and K18 ΔK280, and cells were treated with R2, R2-seeded Tau or R2-seeded K18 at a concentration of 1 μM, […]. After 3 days, the coverslips were processed for ICC. […] Although the intracellular ThS signal is relatively high, it is difficult to distinguish between uptake of exogenous material and seeding of endogenous and/or overexpressed Tau/K18 ΔK280, especially since the concentration used here is relatively high (1 μM).
Hippocampi from PO WT rat (OFA SD, Charles River) were dissociated and triturated in papain-containing medium. After centrifugation at 400 g for 2 min, neurons were plated in MEM supplemented with 10% fetal calf serum (FCS) on Cultrex™ poly-L-lysine (Trevigen)-coated coverslips at 1.5×10^5 cells/ml (6 well-plates, 3 ml per well). After 4 h, medium was replaced with Neurobasal/B27 medium. Viral infections were performed two weeks, and transfection one week after plating.
One week old hippocampal rat primary neurons seeded on coverslips coated with Cultrex poly-L-lysine were transfected with Tau or K18 ΔK280 ([…]) using lipofectamine 2000 reagent (Invitrogen). 24 h after transfection, cells were treated with 1 μM monomeric R2, R2 seeds, R2-seeded Tau, R2-seeded K18 and further incubated for 1 or 3 days. Cells were then fixed in 100% methanol at −20° C. for 10 min and rinsed three times in PBS. After blocking with 3% BSA in PBST for 30 min at RT, cells were incubated with ThS (Sigma) at 0.1 mg/ml in PBS for 10 min and rinsed 5 times with 80% Ethanol and once with PBS. Coverslips were then incubated with primary antibodies for 2 h at RT (see Table M.1). The cells were rinsed five times with PBST and subsequently incubated with the secondary antibodies at a dilution of 1/800 in PBST and DAPI at 2 μg/ml (Life technologies). The cells were washed five times in PBST, once in PBS and rinsed in MilliQ water before mounting in PVA medium with DABCO (Sigma). The cells were then examined with confocal laser-scanning microscope (LSM 700, Zeiss) and analyzed using Zen software.

[4] = neurons transfected with K18 ΔK280
[5] = neurons transfected with WT Tau 4R2N

T1 sequence (P10636 1-441 isoform P10636-8): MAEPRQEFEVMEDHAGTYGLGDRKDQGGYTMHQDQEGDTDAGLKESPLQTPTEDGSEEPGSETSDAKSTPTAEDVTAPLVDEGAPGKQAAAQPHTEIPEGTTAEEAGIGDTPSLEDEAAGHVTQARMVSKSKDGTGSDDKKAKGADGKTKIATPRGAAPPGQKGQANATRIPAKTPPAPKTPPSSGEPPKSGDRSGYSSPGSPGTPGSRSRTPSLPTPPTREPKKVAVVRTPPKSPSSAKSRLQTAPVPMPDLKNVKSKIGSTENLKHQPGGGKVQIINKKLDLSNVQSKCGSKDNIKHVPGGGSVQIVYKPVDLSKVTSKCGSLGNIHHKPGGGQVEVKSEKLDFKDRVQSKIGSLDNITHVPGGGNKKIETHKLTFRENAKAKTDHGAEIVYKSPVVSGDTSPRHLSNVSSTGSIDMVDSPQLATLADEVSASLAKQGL

## R2 extended and mutated to the SGGG motif: R2 PGGG-extended with P301S mutation (SGGG), SEQ ID No 4 (VQIINKKLDLSNVQSKCGSKDNIKHVSGGG; listed as Homo sapiens)
Monomeric Tau 4R2N [1]
  seeding of monomeric Tau / formation of rPHFs (EM): allowed the formation of rPHFs

## R2: Tau repeat peptide R2, SEQ ID No 1
Monomeric Tau 4R2N [1]; 10 μM R2 seeds + 10 μM Tau 4R2N, stagnant
  incubation time until PHFs-like fibrils observed by EM: less than 4 h
Monomeric Tau 4R2N [1]
  seeding of monomeric Tau / formation of rPHFs (EM): allowed the formation of rPHFs

## 4R2N monomer: longest adult human Tau isoform, 441 amino acid, SEQ ID No 5, monomeric
Tau biosensor cells
  Integrated FRET Density (IFD): 0

## O=C(NNc1nc(-c2ccc([N+](=O)[O-])cc2)cs1)c1ccc2nc[nH]c2c1 [BSc3094]
Monomeric Tau 4R2N [2]
  inhibition potency: low

## R2-seeded K18: K18 (SEQ ID No 6) fibrils formed by seeding with R2 seeds
[3]; [4]
  ThS signal in transfected neurons: strong ThS signal
  localisation of ThS signal: intracellular
[3]; [5]
  ThS signal in transfected neurons: strong ThS signal
  localisation of ThS signal: intracellular

## rPHF fibrils: recombinant PHFs: Tau fibrils formed by seeding monomeric Tau with R2 seeds
Tau biosensor cells
  Integrated FRET Density (IFD): increase in the IFD
Tau biosensor cells; transduction per Furman and Diamond
  aggregates in transduced biosensor cells (confocal microscopy): bright aggregated puncta
[3]; [4]
  ThS signal in transfected neurons: strong ThS signal
  localisation of ThS signal: intracellular
[3]; [5]
  ThS signal in transfected neurons: strong ThS signal
  localisation of ThS signal: intracellular

## CN(C)c1ccc2c(c1)Sc1cc(N(C)C)ccc1N2.CS(=O)(=O)O.CS(=O)(=O)O [LMTX]
Monomeric Tau 4R2N [2]
  inhibition potency: high
